The values that follow come from patent publication US8877746B2, “Compositions for delivery of insoluble agents” (Cardioklne, Inc, priority 2009, dated 2014).

The nature of series [1]: Solubility of lixivaptan in water. Format: physicochemical. The procedure: Lixivaptan is very poorly soluble in water (less than 20 ng/mL). Salt formation (a frequently used approach to increase aqueous solubility) was not possible. The bioavailability of lixivaptan can be extremely low in conventional dosage forms (i.e., when blended with excipients and compressed into tablets or filled into capsules).

Series [2] in a line: Solubility in 1.5% SDS at 25° C. Format: physicochemical.

≈ marks a conversion by molar mass, not a printed value.

`Cc1ccc(F)cc1C(=O)Nc1ccc(C(=O)N2Cc3cccn3Cc3ccccc32)c(Cl)c1` [Lixivaptan, 5-fluoro-2-methyl-N-[4-(5H-pyrrolo[2,1-c]-[1,4]-benzodiazepin-10(11H)-ylcarbonyl)-3-chlorophenyl]benzamide]: the solubility in series [1] is < 0.02 µg/mL. In addition, the “Solubility (mg/mL in 1.5% SDS, 25° C.) 1 h” value in series [2] (1 h) amounted to 0.019 mg/mL (≈ 40.1 µM). The solubility at 24 h in series [2] (aqueous with cosolvent or surfactant or cyclodextrin, 24 h, read-out: Solubility (mg/mL in 1.5% SDS, 25° C.) 24 h) stood at 0.024 mg/mL (≈ 50.6 µM).
